{"source": "ChEMBL document CHEMBL1201862", "about": "“PubChem BioAssay data set” (2004)", "assay_in_all_cases": "inhibition of tumour cell growth, NCI panel, 48 h", "key": {"HCT-15": {"tested_on": "HCT-15"}, "MDA-MB-435": {"tested_on": "MDA-MB-435"}, "NCI-H522": {"tested_on": "NCI-H522"}, "OVCAR-8": {"tested_on": "OVCAR-8"}, "MDA-MB-231": {"tested_on": "MDA-MB-231"}, "KM-20L2": {"tested_on": "KM-20L2"}, "MOLT-4": {"tested_on": "MOLT-4"}, "OVCAR-3": {"tested_on": "OVCAR-3"}, "Hs-578T": {"tested_on": "Hs-578T"}, "U-251": {"tested_on": "U-251"}, "ACHN": {"tested_on": "ACHN"}, "MDA-N": {"tested_on": "MDA-N"}, "NCI-H23": {"tested_on": "NCI-H23"}, "SF-539": {"tested_on": "SF-539"}, "SK-MEL-28": {"tested_on": "SK-MEL-28"}, "RXF 393": {"tested_on": "RXF 393"}, "HCT-116": {"tested_on": "HCT-116"}, "NCI/ADR-RES": {"tested_on": "NCI/ADR-RES"}, "HOP-62": {"tested_on": "HOP-62"}, "SNB-19": {"tested_on": "SNB-19"}}, "note": "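Values below derive from 48-hour exposures of cells grown in 96-well plates, with endpoints linearly interpolated between the two concentrations bracketing the appropriate inhibition level. At the GI50, growth is halved.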 Calls of active or inactive are those of the source. Rule as the data show it: active = GI50 up to about 1.1 µM and inactive = higher."}
{"molecule": "CC(=O)O[C@H]1C(=O)O[C@@H]2C[C@H]3C(C)=CC(=O)[C@@H](O)[C@]3(C)[C@H]3[C@@]4(O)OC[C@]32[C@@H]1[C@@H](C)[C@H]4O", "values": [{"measurement": "GI50", "setting": "HCT-15", "result": 0.0759, "unit": "µM"}, {"measurement": "GI50", "setting": "MDA-MB-435", "result": "0.0214 µM (active)"}, {"measurement": "GI50", "setting": "NCI-H522", "result": "0.0243 µM (active)"}, {"measurement": "GI50", "setting": "OVCAR-8", "result": "0.0444 µM (active)"}, {"measurement": "GI50", "setting": "MDA-MB-231", "result": "0.0475 µM (active)"}, {"measurement": "GI50", "setting": "KM-20L2", "result": "0.0977 µM (active)"}, {"measurement": "GI50", "setting": "MOLT-4", "result": "0.022 µM (active)"}, {"measurement": "GI50", "setting": "OVCAR-3", "result": "0.0266 µM (active)"}, {"measurement": "GI50", "setting": "Hs-578T", "result": "0.0175 µM (active)"}, {"measurement": "GI50", "setting": "U-251", "result": "0.0285 µM (active)"}, {"measurement": "GI50", "setting": "ACHN", "result": "0.0317 µM (active)"}, {"measurement": "GI50", "setting": "MDA-N", "result": "0.0211 µM (active)"}, {"measurement": "GI50", "setting": "NCI-H23", "result": "0.0268 µM (active)"}, {"measurement": "GI50", "setting": "SF-539", "result": "0.0246 µM (active)"}, {"measurement": "GI50", "setting": "SK-MEL-28", "result": "0.0281 µM (active)"}, {"measurement": "GI50", "setting": "RXF 393", "result": "0.0301 µM (active)"}, {"measurement": "GI50", "setting": "HCT-116", "result": "0.0234 µM (active)"}, {"measurement": "GI50", "setting": "NCI/ADR-RES", "result": "2.21 µM (inactive)"}, {"measurement": "GI50", "setting": "HOP-62", "result": "0.0498 µM (active)"}]}
{"molecule": "O=C1C2=C(c3ccccc31)C(c1ccccc1)N1C(=O)CSC1=N2", "note": "(centres undefined)", "values": [{"measurement": "GI50", "setting": "HCT-15", "result": 40.3, "unit": "µM"}, {"measurement": "GI50", "setting": "MDA-MB-435", "result": "17.4 µM (inactive)"}, {"measurement": "GI50", "setting": "NCI-H522", "result": "29.4 µM (inactive)"}, {"measurement": "GI50", "setting": "OVCAR-8", "result": "> 71.8 µM (inactive)"}, {"measurement": "GI50", "setting": "MDA-MB-231", "result": "44.8 µM (inactive)"}, {"measurement": "GI50", "setting": "KM-20L2", "result": "91 µM (inactive)"}, {"measurement": "GI50", "setting": "MOLT-4", "result": "38.8 µM (inactive)"}, {"measurement": "GI50", "setting": "OVCAR-3", "result": "51.2 µM (inactive)"}, {"measurement": "GI50", "setting": "Hs-578T", "result": "35.6 µM (inactive)"}, {"measurement": "GI50", "setting": "U-251", "result": "> 63 µM (inactive)"}, {"measurement": "GI50", "setting": "ACHN", "result": "> 79.4 µM (inactive)"}, {"measurement": "GI50", "setting": "MDA-N", "result": "17 µM (inactive)"}, {"measurement": "GI50", "setting": "NCI-H23", "result": "56.4 µM (inactive)"}, {"measurement": "GI50", "setting": "SF-539", "result": "> 53.7 µM (inactive)"}, {"measurement": "GI50", "setting": "SK-MEL-28", "result": "63.5 µM (inactive)"}, {"measurement": "GI50", "setting": "RXF 393", "result": "25.6 µM (inactive)"}, {"measurement": "GI50", "setting": "SNB-19", "result": "55.7 µM (inactive)"}, {"measurement": "GI50", "setting": "HCT-116", "result": "> 56.4 µM (inactive)"}, {"measurement": "GI50", "setting": "NCI/ADR-RES", "result": "24 µM (inactive)"}, {"measurement": "GI50", "setting": "HOP-62", "result": "83.8 µM (inactive)"}]}
{"molecule": "CC(CCC=O)CCOCc1ccccc1", "note": "(centres undefined)", "values": [{"measurement": "GI50", "setting": "HCT-15", "result": "> 100", "unit": "µM"}, {"measurement": "GI50", "setting": "MDA-MB-435", "result": "> 100 µM (inactive)"}, {"measurement": "GI50", "setting": "NCI-H522", "result": "34.8 µM (inactive)"}, {"measurement": "GI50", "setting": "OVCAR-8", "result": "98.4 µM (inactive)"}, {"measurement": "GI50", "setting": "MDA-MB-231", "result": "56.6 µM (inactive)"}, {"measurement": "GI50", "setting": "KM-20L2", "result": "> 100 µM (inactive)"}, {"measurement": "GI50", "setting": "MOLT-4", "result": "> 40.7 µM (inactive)"}, {"measurement": "GI50", "setting": "OVCAR-3", "result": "> 88.5 µM (inactive)"}, {"measurement": "GI50", "setting": "Hs-578T", "result": "> 100 µM (inactive)"}, {"measurement": "GI50", "setting": "U-251", "result": "> 100 µM (inactive)"}, {"measurement": "GI50", "setting": "ACHN", "result": "> 100 µM (inactive)"}, {"measurement": "GI50", "setting": "MDA-N", "result": "> 100 µM (inactive)"}, {"measurement": "GI50", "setting": "NCI-H23", "result": "67.3 µM (inactive)"}, {"measurement": "GI50", "setting": "SF-539", "result": "> 100 µM (inactive)"}, {"measurement": "GI50", "setting": "SK-MEL-28", "result": "> 100 µM (inactive)"}, {"measurement": "GI50", "setting": "RXF 393", "result": "> 100 µM (inactive)"}, {"measurement": "GI50", "setting": "SNB-19", "result": "> 100 µM (inactive)"}, {"measurement": "GI50", "setting": "HCT-116", "result": "> 95.9 µM (inactive)"}, {"measurement": "GI50", "setting": "NCI/ADR-RES", "result": "> 100 µM (inactive)"}, {"measurement": "GI50", "setting": "HOP-62", "result": "> 100 µM (inactive)"}]}
